From patent US20250136606A1, “MODULATORS OF TRPML, THEIR COMPOSITIONS AND METHODS OF USE” (Caraway Therapeutics, Inc., priority 2021, published 2025)
Like-named read-outs stand apart in the source and are kept apart here.

Tests used:
TRPML3 = target: T1, TRPML3 (Homo sapiens, UniProt Q8TDD5); experiment: Fluorescent TRPML3 assay (performed as for TRPML1, substituting the TRPML3 subtype); type: cell-based
T1 construct: expressed in transfected cells
T1 sequence (Q8TDD5 1-553): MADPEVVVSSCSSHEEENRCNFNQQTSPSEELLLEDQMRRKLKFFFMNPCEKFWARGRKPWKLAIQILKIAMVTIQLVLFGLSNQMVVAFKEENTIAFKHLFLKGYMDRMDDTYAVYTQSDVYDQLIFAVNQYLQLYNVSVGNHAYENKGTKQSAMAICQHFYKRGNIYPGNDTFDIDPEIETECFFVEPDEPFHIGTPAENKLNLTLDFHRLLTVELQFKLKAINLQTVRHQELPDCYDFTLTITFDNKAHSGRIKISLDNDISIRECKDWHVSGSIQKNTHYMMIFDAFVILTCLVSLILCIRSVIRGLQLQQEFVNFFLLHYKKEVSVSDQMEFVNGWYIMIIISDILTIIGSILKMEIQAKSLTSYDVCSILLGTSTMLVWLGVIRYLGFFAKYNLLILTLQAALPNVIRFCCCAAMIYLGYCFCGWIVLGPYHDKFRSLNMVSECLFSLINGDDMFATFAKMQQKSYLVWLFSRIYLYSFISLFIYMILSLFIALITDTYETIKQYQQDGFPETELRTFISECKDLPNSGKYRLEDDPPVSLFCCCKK
Method: (§1) HEK-293 Trex cells were stably transfected with a construct consisting of the human coding sequence for TRPML1 cloned into the […] plasmid pCDNA5 T/O. Mutations were introduced into the TRPML1 sequence to facilitate expression on the cell surface (Silvia Vergarajauregui, Rosa Puertollano, Traffic. 2006 March; 7(3): 337-353). Briefly, the cells are cultured in 150 mm round tissue culture dishes containing 20 mL of media. The day before the assay the cells are rinsed with DPBS-Ca—Mg and then treated briefly with Trypsin-EDTA. The Trypsin-EDTA is diluted with growth media, and cells are counted. 38×10^6 cells are re-plated into 150 mm round tissue culture dishes in media containing 0.5 ug/mL doxycycline to induce expression of hTRPML1.
(§2) The day of the experiment cells are lifted from the plates as above and collected by centrifugation. The cells are then suspended in dye loading buffer consisting of Ringer's solution supplemented with 0.1% Pluronic Acid and 1 micromolar Fluo4-AM dye. Cells are loaded for ˜60 minutes in the dark with occasional mixing. The cells are collected by centrifugation, the loading media aspirated, and the cells resuspended in 25 mL Ringer's solution and incubated ˜60 minutes in the dark. The cells are again collected by centrifugation, rinsed in Ringer's Solution and resuspended to […] in modified Ringer's solution containing 10 mM calcium.
(§3) Compounds are dissolved to a concentration of 10 millimolar with DMSO. Compound plates are created by dispensing compounds into 384 well black wall clear bottom plates (Greiner 781091). Positive and negative controls are included on each plate. Typically, different amounts of each compound are tested ranging from 100 nanoMoles (20 micromolar final concentration) decreasing in half-log steps to 31 picoMoles (6 nanomolar final concentration). Each concentration is typically tested in triplicate.
(§4) 50 microliters of dye-loaded cells are dispensed into each well of the compound assay plate created above. The fluorescence in each well is then determined with an excitation wavelength of 480 nm and an emission wavelength of 540 nm using either a Molecular Devices SpectraMax multimode plate reader or a Hamamatsu FDSS/uCell plate imager.
(§5) The resulting fluorescence for each well is exported as an ascii file and loaded into our LIMS for analysis. The percent activity of each compound at each concentration is determined by comparison to the positive and negative control wells included in each plate.
TRPML2 and TRPML3 Assays Assays for TRPML2 and TRPML3 were performed as above for TRPML1, by substituting the appropriate TRPML2 or TRPML3 subtype for the TRPML1.
(§6) EC50 values were calculated using a non-linear regression of Prism. In the table, “A” indicates an EC50 of less than 100 nM, “B” indicates an EC50 range from 100 nM to 500 nM; “C” indicates an EC50 range from 500 nM to 2 μM; and “D” indicates an EC50 greater than 2 μM.

TRPML1 = TRPML1 (Homo sapiens, UniProt Q9GZU1); experiment: Fluorescent TRPML1 assay (Fluo4-AM calcium fluorescence in doxycycline-induced HEK-293 Trex cells); type: cell-based
Method: as §1, §2, §3, §4, §5, §6

Sequence of TRPML1 (Q9GZU1 whole entry L15A/L16A/L577A/L578A, form open): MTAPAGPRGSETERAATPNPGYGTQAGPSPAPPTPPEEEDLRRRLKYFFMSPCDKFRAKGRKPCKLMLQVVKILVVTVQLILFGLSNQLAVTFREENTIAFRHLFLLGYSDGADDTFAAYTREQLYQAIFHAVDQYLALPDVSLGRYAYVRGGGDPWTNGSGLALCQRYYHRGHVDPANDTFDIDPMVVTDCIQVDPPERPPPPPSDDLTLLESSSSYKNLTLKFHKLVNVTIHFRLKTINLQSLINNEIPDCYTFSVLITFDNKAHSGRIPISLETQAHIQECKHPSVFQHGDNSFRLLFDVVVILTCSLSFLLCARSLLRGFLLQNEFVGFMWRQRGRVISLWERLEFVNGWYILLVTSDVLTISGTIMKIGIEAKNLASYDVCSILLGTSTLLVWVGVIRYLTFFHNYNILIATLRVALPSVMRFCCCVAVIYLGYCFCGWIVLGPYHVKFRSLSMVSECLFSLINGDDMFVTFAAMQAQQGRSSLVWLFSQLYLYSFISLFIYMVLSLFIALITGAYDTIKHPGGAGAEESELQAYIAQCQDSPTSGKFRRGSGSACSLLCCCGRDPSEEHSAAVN

Row | Compound | EC50 (TRPML3; fluorescent calcium assay) [nM] | EC50 (TRPML1; fluorescent calcium assay) [nM] | EC50 (TRPML3) [nM] | EC50 (TRPML1) [nM]
1 | CC(C)(C)OC(=O)N1CCN(c2ncnc3c2c(C2CC2)cn3-c2cc(F)cc(F)c2)C[C@@H]1C(F)F (single isomer, unassigned) [Compound 315] | 500 to 2000 | 500 to 2000 | – | –
2 | C[C@@H]1CN(c2ncnc3c2c(C(F)(F)F)cn3[C@H]2CCCC(F)(F)C2)[C@@H](C)CN1C(=O)OC(C)(C)C (single isomer, unassigned) [Compound 713] | – | – | 100 to 500 | 500 to 2000
3 | CCOC(=O)N1CCN(c2ncnc3c2c(C2CC2)cn3-c2cncc(C)c2)[C@@H](C)C1 [Compound 153, ethyl (S)-4-(5-cyclopropyl-7-(5-methylpyridin-3-yl)-7H-pyrrolo[2,3-d]pyrimidin-4-yl)-3-methylpiperazine-1-carboxylate] | > 2000 | > 2000 | – | –
4 | C[C@@H]1CN(C(=O)OC(C)(C)C)CCN1c1ncnc2c1c(N1CCOCC1)cn2-c1cc(F)cc(F)c1 [Compound 227, tert-Butyl (R)-4-(7-(3,5-difluorophenyl)-5-morpholino-7H-pyrrolo[2,3-d]pyrimidin-4-yl)-3-methylpiperazine-1-carboxylate] | 100 to 500 | 500 to 2000 | – | –
5 | C[C@H]1CN(C(=O)OCC(F)(F)F)CCN1c1ncnc2c1c(-c1ccccn1)cn2-c1cc(C#N)ccn1 [Compound 372, 2,2,2-trifluoroethyl (S)-4-(7-(4-cyanopyridin-2-yl)-5-(pyridin-2-yl)-7H-pyrrolo[2,3-d]pyrimidin-4-yl)-3-methylpiperazine-1-carboxylate] | 100 to 500 | 100 to 500 | – | –
6 | C[C@H]1CN(C(=O)OC(C)(C)C)CCN1c1ncnc2c1c(N1CCOCC1)cn2-c1cc(C#N)ccn1 [Compound 380, tert-butyl (S)-4-(7-(4-cyanopyridin-2-yl)-5-morpholino-7H-pyrrolo[2,3-d]pyrimidin-4-yl)-3-methylpiperazine-1-carboxylate] | 500 to 2000 | 100 to 500 | – | –
7 | C[C@H]1CN(C(=O)OC(C)(C)C)CCN1c1ncnc2c1c(C1CC1)cn2C1CCCC(F)(F)C1 (stereo partly drawn) [Compound 382, tert-butyl (3S)-4-(5-cyclopropyl-7-(3,3-difluorocyclohexyl)-7H-pyrrolo[2,3-d]pyrimidin-4-yl)-3-methylpiperazine-1-carboxylate] | 500 to 2000 | 500 to 2000 | – | –
8 | CC(C)(OC(=O)N1CCN(c2ncnc3c2c(C2CC2)cn3-c2cc(C#N)ccn2)CC1)C(F)(F)F [Compound 385, 1,1,1-trifluoro-2-methylpropan-2-yl 4-(7-(4-cyanopyridin-2-yl)-5-cyclopropyl-7H-pyrrolo[2,3-d]pyrimidin-4-yl)piperazine-1-carboxylate] | 100 to 500 | 100 to 500 | – | –
9 | CC(C)OC(=O)N1CCN(c2ncnc3c2c(C2CC2)cn3-c2cc(C#N)ccn2)[C@@H](C)C1 [Compound 386, isopropyl (S)-4-(7-(4-cyanopyridin-2-yl)-5-cyclopropyl-7H-pyrrolo[2,3-d]pyrimidin-4-yl)-3-methylpiperazine-1-carboxylate] | 100 to 500 | < 100 | – | –
10 | C[C@@H]1CN(C(=O)OC(C)(C)C)CCN1c1ncnc2c1c(C1CC1)cn2-c1cc(C#N)ccn1 [Compound 393, tert-butyl (R)-4-(7-(4-cyanopyridin-2-yl)-5-cyclopropyl-7H-pyrrolo [2,3-d]pyrimidin-4-yl)-3-methylpiperazine-1-carboxylate] | < 100 | < 100 | – | –

Continued, values first:

Row | EC50 (TRPML3; fluorescent calcium assay) [nM] | EC50 (TRPML1; fluorescent calcium assay) [nM] | EC50 (TRPML3) [nM] | EC50 (TRPML1) [nM] | Compound
11 | 500 to 2000 | 500 to 2000 | – | – | CCOC(=O)N1C[C@H](C)N(c2ncnc3c2c(-c2cnccn2)cn3-c2cccc(Cl)c2)C[C@H]1C [Compound 125, Ethyl (2R,5S)-4-(7-(3-chlorophenyl)-5-(pyrazin-2-yl)-7H-pyrrolo[2,3-d]pyrimidin-4-yl)-2,5-dimethylpiperazine-1-carboxylate]
12 | 500 to 2000 | 500 to 2000 | – | – | CCOC(=O)N1CCN(c2ncnc3c2c(-c2ccccc2F)cn3-c2cncc(OC)c2)[C@@H](C)C1 [Compound 126, ethyl (S)-4-(5-(2-fluorophenyl)-7-(5-methoxypyridin-3-yl)-7H-pyrrolo[2,3-d]pyrimidin-4-yl)-3-methylpiperazine-1-carboxylate]
13 | 100 to 500 | 100 to 500 | – | – | CCOC(=O)N1C[C@H](C)N(c2ncnc3c2c(C2CC2)cn3-c2cccc(Cl)c2)[C@@H](C)C1 [Compound 189, ethyl (3S,5S)-4-(7-(3-chlorophenyl)-5-cyclopropyl-7H-pyrrolo[2,3-d]pyrimidin-4-yl)-3,5-dimethylpiperazine-1-carboxylate]
14 | 100 to 500 | > 2000 | – | – | C[C@@H]1CN(c2ncnc3c2c(N2CCC[C@H]2CO)cn3-c2cccc(Cl)c2)CCN1C(=O)OC(C)(C)C [Compound 283, tert-butyl (R)-4-(7-(3-chlorophenyl)-5-((S)-2-(hydroxymethyl)pyrrolidin-1-yl)-7H-pyrrolo[2,3-d]pyrimidin-4-yl)-2-methylpiperazine-1-carboxylate]
15 | < 100 | 500 to 2000 | – | – | C[C@H]1CCCN1c1cn(-c2cccc(Cl)c2)c2ncnc(N3CCN(C(=O)OC(C)(C)C)C[C@@H]3C)c12 [Compound 316, tert-butyl (S)-4-(7-(3-chlorophenyl)-5-((S)-2-methylpyrrolidin-1-yl)-7H-pyrrolo[2,3-d]pyrimidin-4-yl)-3-methylpiperazine-1-carboxylate]
16 | – | 100 to 500 | – | – | C[C@H]1CN(C(=O)OC(C)(C)C(F)(F)F)CCN1c1ncnc2c1c(N1CCCC1)cn2C1CCCCC1 [Compound 359, 1,1,1-trifluoro-2-methylpropan-2-yl (S)-4-(7-cyclohexyl-5-(pyrrolidin-1-yl)-7H-pyrrolo[2,3-d]pyrimidin-4-yl)-3-methylpiperazine-1-carboxylate]
17 | – | 500 to 2000 | – | – | C[C@H]1CN(C(=O)OC(C)(C)C)CCN1c1ncnc2c1c(N1CCCC1)cn2C1CCOCC1 [Compound 360, tert-butyl (S)-3-methyl-4-(5-(pyrrolidin-1-yl)-7-(tetrahydro-2H-pyran-4-yl)-7H-pyrrolo[2,3-d]pyrimidin-4-yl)piperazine-1-carboxylate]
18 | – | < 100 | – | – | C[C@H]1CN(C(=O)OC(C)(C)C)CCN1c1ncnc2c1c(C1CC1)cn2[C@@H]1C[C@@H]2CC[C@H]1C2 [Compound 361, tert-butyl (S)-4-(7-((1S,2R,4R)-bicyclo[2.2.1]heptan-2-yl)-5-cyclopropyl-7H-pyrrolo[2,3-d]pyrimidin-4-yl)-3-methylpiperazine-1-carboxylate]
19 | < 100 | 100 to 500 | – | – | N#Cc1ccnc(-n2cc(-c3ccccc3F)c3c(N4CCN(C(=O)OCC(F)(F)F)CC4)ncnc32)c1 [Compound 373, 2,2,2-trifluoroethyl 4-(7-(4-cyanopyridin-2-yl)-5-(2-fluorophenyl)-7H-pyrrolo[2,3-d]pyrimidin-4-yl)piperazine-1-carboxylate]
20 | > 2000 | 100 to 500 | – | – | C[C@H]1CN(C(=O)OC(C)(C)C)CCN1c1ncnc2c1c(N1CCCC1)cn2C12CCC(CC1)CC2 [Compound 383, tert-butyl (S)-4-(7-(bicyclo[2.2.2]octan-1-yl)-5-(pyrrolidin-1-yl)-7H-pyrrolo[2,3-d]pyrimidin-4-yl)-3-methylpiperazine-1-carboxylate]
21 | < 100 | 100 to 500 | – | – | CC(C)(C)OC(=O)N1CCN(c2ncnc3c2c(-c2ccccc2F)cn3-c2cc(C#N)ccn2)CC12CC2 [Compound 392, tert-butyl 7-(7-(4-cyanopyridin-2-yl)-5-(2-fluorophenyl)-7H-pyrrolo[2,3-d]pyrimidin-4-yl)-4,7-diazaspiro[2.5]octane-4-carboxylate]
